Measured values taken from ChEMBL document CHEMBL4138190, “Anti-amyloidogenic and anti-apoptotic effect of α-bisabolol against Aβ induced neurotoxicity in PC12 cells” (Eur J Med Chem, 2018).
Activity calls are given as the source filed them. No cut-off for these calls is given here.

Assays:
[1] = biological target: Amyloid-beta precursor protein (Homo sapiens) (UniProt P05067); assay: Disaggregation of amyloid beta (25 to 35 residues) (unknown origin) preformed fibrils at 50 ug/ml after 96 hrs to 9 days by ThT-based fluorescence spectroscopic method
[2] = biological target: Amyloid-beta precursor protein (Homo sapiens) (UniProt P05067); assay: Inhibition of amyloid beta (25 to 35 residues) (unknown origin) aggregation at 50 ug/ml after 24 to 48 hrs by thioflavin T dye based confocal laser scanning microscopy
[3] = biological target: Amyloid-beta precursor protein (Homo sapiens) (UniProt P05067); assay: Disaggregation of amyloid beta (25 to 35 residues) (unknown origin) preformed fibrils at 50 ug/ml after 96 hrs to 9 days by FTIR spectroscopy
[4] = biological target: Amyloid-beta precursor protein (Homo sapiens) (UniProt P05067); assay: Disaggregation of amyloid beta (25 to 35 residues) (unknown origin) preformed fibrils at 50 ug/ml after 96 hrs to 9 days by thioflavin T dye based confocal laser scanning microscopy
[5] = biological target: Amyloid-beta precursor protein (Homo sapiens) (UniProt P05067); assay: Inhibition of amyloid beta (25 to 35 residues) (unknown origin) aggregation at 50 ug/ml after 24 to 48 hrs by FTIR spectroscopy
[6] = biological target: Amyloid-beta precursor protein (Homo sapiens) (UniProt P05067); assay: (§1) Inhibition of amyloid beta (25 to 35 residues) (unknown origin)-induced toxicity in rat PC12 cells assessed as protection against amyloid beta (25 to 35 residues)-induced apoptosis by measuring necrotic cells at 50 ug/ml by Annexin V-FITC/propidium iodide staining-based flow cytometric method (reference value: 0.73%); type: cell-based; parameters: scale not given: the % may be the effect or the level left; conditions: at 50 µg/mL
[7] = biological target: Amyloid-beta precursor protein (Homo sapiens) (UniProt P05067); assay: (§2) Inhibition of amyloid beta (25 to 35 residues) (unknown origin)-induced toxicity in rat PC12 cells assessed as increase in cell viability at 50 ug/ml preincubated for 2 hrs followed by amyloid beta (25 to 35 residues) addition measured after 24 hrs by MTT dye based light microscopic assay (reference value: 48%); conditions: at 50 µg/mL
[8] = biological target: Amyloid-beta precursor protein (Homo sapiens) (UniProt P05067); assay: as §1, with “viable” for “necrotic”, “48.71%)” for “0.73%)”; type: cell-based; conditions: at 50 µg/mL
[9] = biological target: Amyloid-beta precursor protein (Homo sapiens) (UniProt P05067); assay: as §1, with “late apoptotic” for “necrotic”, “4.56%)” for “0.73%)”; type: cell-based; parameters: scale not given: the % may be the effect or the level left; conditions: at 50 µg/mL
[10] = biological target: Amyloid-beta precursor protein (Homo sapiens) (UniProt P05067); assay: as §1, with “early apoptotic” for “necrotic”, “46%)” for “0.73%)”; type: cell-based; parameters: scale not given: the % may be the effect or the level left; conditions: at 50 µg/mL
[11] = biological target: Amyloid-beta precursor protein (Homo sapiens) (UniProt P05067); conditions: at 50 µg/mL
Description: Inhibition of amyloid beta (25 to 35 residues) (unknown origin)-induced toxicity in rat PC12 cells assessed as cell survival at 50 ug/ml after 1 to 3 weeks by clonogenic assay (Rvb = 25%)

[12] = biological target: Amyloid-beta precursor protein (Homo sapiens) (UniProt P05067); assay: Inhibition of amyloid beta (25 to 35 residues) (unknown origin) aggregation at 5 ug/ml after 24 to 48 hrs by phosphotungstic acid staining based transmission electron microscopy
[13] = biological target: Amyloid-beta precursor protein (Homo sapiens) (UniProt P05067); assay: Inhibition of amyloid beta (25 to 35 residues) (unknown origin) aggregation at 5 ug/ml after 24 to 48 hrs by thioflavin T dye based confocal laser scanning microscopy
[14] = biological target: Amyloid-beta precursor protein (Homo sapiens) (UniProt P05067); assay: Inhibition of amyloid beta (25 to 35 residues) (unknown origin) aggregation at 5 ug/ml after 24 to 48 hrs by FTIR spectroscopy
[15] = biological target: Amyloid-beta precursor protein (Homo sapiens) (UniProt P05067); assay: as §1, with “5” for “50”; type: cell-based; parameters: scale not given: the % may be the effect or the level left
[16] = biological target: Amyloid-beta precursor protein (Homo sapiens) (UniProt P05067); assay: as §1, with “viable” for “necrotic”, “5” for “50”, “48.71%)” for “0.73%)”; type: cell-based
[17] = biological target: Amyloid-beta precursor protein (Homo sapiens) (UniProt P05067); assay: Disaggregation of amyloid beta (25 to 35 residues) (unknown origin) preformed fibrils at 5 ug/ml after 96 hrs to 9 days by thioflavin T dye based confocal laser scanning microscopy
[18] = biological target: Amyloid-beta precursor protein (Homo sapiens) (UniProt P05067); assay: Disaggregation of amyloid beta (25 to 35 residues) (unknown origin) preformed fibrils at 5 ug/ml after 96 hrs to 9 days by ThT-based fluorescence spectroscopic method
[19] = biological target: Amyloid-beta precursor protein (Homo sapiens) (UniProt P05067); assay: Inhibition of amyloid beta (25 to 35 residues) (unknown origin) aggregation at 5 ug/ml after 24 to 48 hrs by ThT-based fluorescence spectroscopic method
[20] = biological target: Amyloid-beta precursor protein (Homo sapiens) (UniProt P05067); assay: as §1, with “early apoptotic” for “necrotic”, “5” for “50”, “46%)” for “0.73%)”; type: cell-based; parameters: scale not given: the % may be the effect or the level left
[21] = biological target: Amyloid-beta precursor protein (Homo sapiens) (UniProt P05067); assay: Disaggregation of amyloid beta (25 to 35 residues) (unknown origin) preformed fibrils at 5 ug/ml after 96 hrs to 9 days by phosphotungstic acid staining based transmission electron microscopy
Acetylcholinesterase = Acetylcholinesterase (Homo sapiens, UniProt P22303); assay: Inhibition of AChE (unknown origin) preincubated for 45 mins followed by ATCI substrate addition measured for 3 mins
[22] = biological target: Amyloid-beta precursor protein (Homo sapiens) (UniProt P05067); assay: as §1, with “late apoptotic” for “necrotic”, “5” for “50”, “4.56%)” for “0.73%)”; type: cell-based; parameters: scale not given: the % may be the effect or the level left
[23] = biological target: Amyloid-beta precursor protein (Homo sapiens) (UniProt P05067); assay: Inhibition of amyloid beta (25 to 35 residues) (unknown origin)-induced toxicity in rat PC12 cells assessed as cell survival at 5 ug/ml after 1 to 3 weeks by clonogenic assay (reference value: 25%); type: cell-based
[24] = biological target: Amyloid-beta precursor protein (Homo sapiens) (UniProt P05067); assay: Disaggregation of amyloid beta (25 to 35 residues) (unknown origin) preformed fibrils at 5 ug/ml after 96 hrs to 9 days by FTIR spectroscopy
[25] = biological target: Amyloid-beta precursor protein (Homo sapiens) (UniProt P05067); assay: as §2, with “2 to 10” for “50”

Amyloid-beta precursor protein (Homo sapiens), sequence (P05067 whole entry, the tested form may be a part): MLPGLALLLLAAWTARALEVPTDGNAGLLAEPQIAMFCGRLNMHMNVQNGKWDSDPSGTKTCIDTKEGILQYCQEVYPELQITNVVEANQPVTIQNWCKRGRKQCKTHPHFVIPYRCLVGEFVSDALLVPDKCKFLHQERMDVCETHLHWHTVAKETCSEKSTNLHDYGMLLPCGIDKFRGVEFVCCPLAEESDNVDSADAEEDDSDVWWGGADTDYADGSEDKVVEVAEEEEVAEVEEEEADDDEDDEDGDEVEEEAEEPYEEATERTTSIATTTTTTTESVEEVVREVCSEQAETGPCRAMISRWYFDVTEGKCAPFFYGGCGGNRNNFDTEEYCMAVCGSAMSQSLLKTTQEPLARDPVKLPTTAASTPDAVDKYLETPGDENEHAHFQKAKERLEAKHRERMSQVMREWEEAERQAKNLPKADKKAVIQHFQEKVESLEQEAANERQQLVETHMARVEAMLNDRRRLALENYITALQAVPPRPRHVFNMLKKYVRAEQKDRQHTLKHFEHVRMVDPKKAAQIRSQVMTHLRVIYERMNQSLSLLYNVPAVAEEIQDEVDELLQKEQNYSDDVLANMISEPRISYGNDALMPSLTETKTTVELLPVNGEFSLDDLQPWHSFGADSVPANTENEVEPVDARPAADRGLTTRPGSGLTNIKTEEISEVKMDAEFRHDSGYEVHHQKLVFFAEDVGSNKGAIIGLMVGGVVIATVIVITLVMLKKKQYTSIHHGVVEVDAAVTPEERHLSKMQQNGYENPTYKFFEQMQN
Acetylcholinesterase, sequence (P22303 whole entry): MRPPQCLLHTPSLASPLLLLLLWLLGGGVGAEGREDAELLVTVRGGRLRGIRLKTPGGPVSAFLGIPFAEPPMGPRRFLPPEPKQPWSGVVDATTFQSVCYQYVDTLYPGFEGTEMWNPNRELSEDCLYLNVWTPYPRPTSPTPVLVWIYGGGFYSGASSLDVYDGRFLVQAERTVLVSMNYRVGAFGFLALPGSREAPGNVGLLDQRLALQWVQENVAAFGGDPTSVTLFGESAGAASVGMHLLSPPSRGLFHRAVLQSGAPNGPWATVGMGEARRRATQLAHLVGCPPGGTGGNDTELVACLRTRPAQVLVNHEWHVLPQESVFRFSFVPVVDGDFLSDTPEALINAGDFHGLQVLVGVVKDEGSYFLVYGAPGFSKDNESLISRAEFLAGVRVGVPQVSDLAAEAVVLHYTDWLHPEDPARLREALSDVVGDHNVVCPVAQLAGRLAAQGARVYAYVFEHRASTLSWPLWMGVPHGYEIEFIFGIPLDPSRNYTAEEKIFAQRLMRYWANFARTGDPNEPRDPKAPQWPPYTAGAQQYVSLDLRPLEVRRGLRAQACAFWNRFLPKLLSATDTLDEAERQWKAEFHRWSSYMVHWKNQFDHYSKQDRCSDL

COc1ccc2c3c1O[C@H]1C[C@@H](O)C=C[C@@]31CCN(C)C2
Activity [1]: Active
inhibition [2]: Active
Activity [3]: Active
Activity [4]: Active
inhibition [5]: Active

COc1cc2c(cc1OC)C(=O)C(CC1CCN(Cc3ccccc3)CC1)C2 (stereo unspecified)
Activity [6]: 2%
Activity [7]: 81%
Activity [8]: 96.2%
Activity [9]: 0.26%
Activity [10]: 1.58%
Survival [11]: 96%

CC(C)=CCC[C@@](C)(O)[C@H]1CC=C(C)CC1
inhibition [12]: Active
inhibition [13]: Active
inhibition [14]: Active
Activity [15]: 0.62%
Activity [16]: 97.8%
Activity [17]: Active
Activity [18]: Active
inhibition [19]: Active
Activity [20]: 1.32%
Activity [21]: Active
IC50 (Acetylcholinesterase): < 45 µM
Activity [22]: 0.31%
Survival [23]: 96%
Activity [24]: Active
Activity [25]: > 80%
